Data from patent US20210370019A1, “Method of Treatment Using Negative Pressure Renal Therapy and Medicament(s)” (Strataca Systems Limited, priority 2020, published 2021).
Read-outs that look alike come from different tables or passages of the source.

What was measured:
[1] = tested on: congestion heart failure (HF) model; details: for diuresis / natriuresis: furosemide diuresis, No-HF; for filtration fraction: furosemide infusion
[2] = cited from earlier work
[3] = tested on: animal model of hypervolemic tamponade

Work on `NS(=O)(=O)c1cc(C(=O)O)c(NCc2ccco2)cc1Cl` [furosemide] yielded a diuresis ([1]; control kidney (no rNPT)) of 11.8 ± 3.7 mL/min, a natriuresis ([1]; control kidney (no rNPT)) of 1.5 ± 0.5 mmol/min and a diuresis ([1]; rNPT kidney (−30 mmHg)) of 19.7 ± 4.5 mL/min. The natriuresis ([1]; rNPT kidney (−30 mmHg)) was 2.4 ± 0.6 mmol/min, the filtration fraction ([1]; during rNPT (similar effect between HF and no HF periods)) was 55.6±24.8% and the filtration fraction ([1]; without rNPT) was 49.0±20.8%. For the same molecule, the “increase in renal interstitial pressure” value ([2]; furosemide administration, as reported) was roughly 7 mmHg, the “effect on GFR” value ([2]; known effect of furosemide) was “can reduce GFR” and the “decrease in urine output” value ([3]; tamponade (CVP approx. 20 mm Hg), continued presence of furosemide, compared to mild congestion state of saline loading) was −35%. The “increase in urine output” value ([3]; tamponade, negative pressure (−30 mm Hg) in combination with furosemide, beyond the use of diuretics alone) was “+67%”.
